{"source": "paper PMC5031696", "about": "“Synthesis, Biodistribution and In vitro Evaluation of Brain Permeable High Affinity Type 2 Cannabinoid Receptor Agonists [^11C]MA2 and [^18F]MA3” (Frontiers in Neuroscience, 2016)", "key": {"[1]": {"assay": "plasma radiometabolite analysis", "assay_type": "in vivo", "details": "mouse plasma, average of 2 assays", "method": "The fraction of radiometabolites in mouse plasma at 2 and 30 min after injection of the tracer was determined by RP-HPLC analysis to investigate the in vivo stability of [^11C]MA2. […] At 2 min post injection of [^11C]MA2, 88% (n = 2) of the recovered radioactivity was assigned to the intact parent tracer. The percentage of intact [^11C]MA2 decreased to 34% at 30 min post injection of the tracer. All detected radiometabolites were more polar than the intact tracer.\nAfter i.v. administration of [^11C]MA2 (~ 9.25 MBq) via a lateral tail vein to anesthetized NMRI mice (isoflurane 2% in oxygen), the mice were decapitated at 2 or 30 min post injection (n = 2 per time point). […] The isolated plasma was spiked with authentic non-radioactive MA2 (15 μL of 1 mg/mL solution in CH3CN) and analyzed by RP-HPLC on a Chromolith RP C18 column (3 mm x 100 mm; Merck) eluted with gradient mixtures of CH3CN (A) and 0.05 M NaOAc pH 5.5 (B) (0–5 min: Isocratic 100% B, flow rate of 0.5 mL/min; 5–10 min: Linear gradient 100 B to 10% B, flow rate of 1 mL/min; 10–13 min: Isocratic 10% B, flow rate of 1 mL/min; 13–13.1 min: Linear gradient 10 B to 100% B, flow rate of 0.5 mL/min; 13.1–15 min: Isocratic 100% B, flow rate of 0.5 mL/min). […] The radioactivity in all fractions was measured using an automated gamma counter. […]"}, "[2]": {"assay": "biodistribution studies in male NMRI mice", "assay_type": "in vivo, mouse", "details": "NMRI mice; for % ID bladder + urine / % ID blood / SUV blood / % ID brain / SUV brain / % ID heart / SUV heart / % ID intestines / % ID kidneys / SUV kidneys / % ID liver / SUV liver / % ID lungs / SUV lungs / % ID pancreas / SUV pancreas / % ID spleen / SUV spleen / % ID stomach: i.v.", "method": "The tissue distribution and kinetics of [^11C]MA2 and [^18F]MA3 were studied in male NMRI mice at 2, 10, 30, and 60 min post injection of the tracer. The results of the biodistribution studies are presented in Table 1 ([^11C]MA2) and Table 2 ([^18F]MA3) as percentage of injected dose (% ID) and standard uptake value (SUV).\nThe biodistribution of [^11C]MA2 and [^18F]MA3 was studied in normal male Naval Medical Research Institute (NMRI) mice. A solution of HPLC-purified [^11C]MA2 or [^18F]MA3 was diluted with saline to obtain an ethanol concentration < 10%. Mice were anesthetized with isoflurane (2% in oxygen) and injected intravenously (i.v.) with [^11C]MA2 (~ 9.25 MBq) or [^18F]MA3 (~ 0.92 MBq) via a lateral tail vein. The mice were sacrificed by decapitation at 2, and 60 min post injection (for [^11C]MA2, n = 4) and at 2, 10, 30, or 60 min post injection (for [^18F]MA3, n = 3 or 4 per time point) and dissected. Blood, organs, and other body parts were collected in tared tubes and the radioactivity in each tube was measured using an automated gamma counter. The tubes containing selected organs and blood were weighed. For calculation of total radioactivity in blood, blood mass was assumed to be 7% of the body mass (Fritzberg et al., [1982]). Quantitative data are expressed as mean ± standard deviation (SD). Means were compared using an unpaired two-tailed student t-test. Values were considered statistically significant for P ≤ 0.05."}, "[3]": {"parameters": "method as in Horti et al., 2010", "details": "rat brain, 2 min post injection; ref Horti et al., 2010; cited from earlier work"}}, "note": "Where “and” joins values, the source holds several entries; their conditions need not be identical. Equal entries are not always repeated.", "data": [{"smiles": "[11CH3]Oc1ccc2ncc(NCCCc3nc(-c4ccc(F)cc4Cl)no3)cc2c1", "note": "[[^11C]MA2]", "values": [{"measurement": "% of intact tracer in blood plasma", "setting": "[1]; 2 min post injection", "result": 88, "unit": "%"}, {"measurement": "% of intact tracer in blood plasma", "setting": "[1]; 30 min post injection", "result": 34, "unit": "%"}, {"measurement": "accumulation in the spleen", "setting": "[2]", "result": "no accumulation"}, {"measurement": "% ID bladder + urine", "setting": "[2]; 2 min post injection", "result": "0.2 ± 0.1", "unit": "% ID"}, {"measurement": "% ID bladder + urine", "setting": "[2]; 60 min post injection", "result": "4.5 % ID and 4.5 ± 1.0 % ID"}, {"measurement": "% ID blood", "setting": "[2]; 2 min post injection", "result": "5.8 ± 0.4", "unit": "% ID"}, {"measurement": "SUV blood", "setting": "[2]; 2 min post injection", "result": "0.8 ± 0.1"}, {"measurement": "% ID blood", "setting": "[2]; 60 min post injection", "result": "0.7 ± 0.1", "unit": "% ID"}, {"measurement": "SUV blood", "setting": "[2]; 60 min post injection", "result": "0.1 ± 0.0"}, {"measurement": "% ID brain", "setting": "[2]; 2 min post injection", "result": "1.6 % ID and 1.6 ± 0.5 % ID"}, {"measurement": "SUV brain", "setting": "[2]; 2 min post injection", "result": "1.8 ± 0.2"}, {"measurement": "% ID brain", "setting": "[2]; 60 min post injection", "result": "0.1 ± 0.0", "unit": "% ID"}, {"measurement": "SUV brain", "setting": "[2]; 60 min post injection", "result": "0.1 ± 0.0"}, {"measurement": "blood % ID 2 min/60 min ratio", "setting": "[2]; clearance from blood", "result": 8.6}, {"measurement": "% ID heart", "setting": "[2]; 2 min post injection", "result": "1.4 ± 0.4", "unit": "% ID"}, {"measurement": "SUV heart", "setting": "[2]; 2 min post injection", "result": "3.3 ± 0.6"}, {"measurement": "% ID heart", "setting": "[2]; 60 min post injection", "result": "0.1 ± 0.0", "unit": "% ID"}, {"measurement": "SUV heart", "setting": "[2]; 60 min post injection", "result": "0.1 ± 0.0"}, {"measurement": "% ID intestines", "setting": "[2]; 2 min post injection", "result": "9.7 ± 0.4", "unit": "% ID"}, {"measurement": "% ID intestines", "setting": "[2]; 60 min post injection", "result": "63.8 % ID and 63.8 ± 2.9 % ID"}, {"measurement": "% ID kidneys", "setting": "[2]; 2 min post injection", "result": "8.3 ± 1.6", "unit": "% ID"}, {"measurement": "SUV kidneys", "setting": "[2]; 2 min post injection", "result": "5.1 ± 0.7"}, {"measurement": "% ID kidneys", "setting": "[2]; 60 min post injection", "result": "1.0 ± 0.3", "unit": "% ID"}, {"measurement": "SUV kidneys", "setting": "[2]; 60 min post injection", "result": "0.6 ± 0.1"}, {"measurement": "% ID liver", "setting": "[2]; 2 min post injection", "result": "28.3 ± 2.9", "unit": "% ID"}, {"measurement": "SUV liver", "setting": "[2]; 2 min post injection", "result": "6.0 ± 0.1"}, {"measurement": "% ID liver", "setting": "[2]; 60 min post injection", "result": "9.1 ± 3.0", "unit": "% ID"}, {"measurement": "SUV liver", "setting": "[2]; 60 min post injection", "result": "2.0 and 2.0 ± 0.5"}, {"measurement": "% ID lungs", "setting": "[2]; 2 min post injection", "result": "1.4 ± 0.3", "unit": "% ID"}, {"measurement": "SUV lungs", "setting": "[2]; 2 min post injection", "result": "2.3 ± 0.4"}, {"measurement": "% ID lungs", "setting": "[2]; 60 min post injection", "result": "0.1 ± 0.0", "unit": "% ID"}, {"measurement": "SUV lungs", "setting": "[2]; 60 min post injection", "result": "0.2 ± 0.0"}, {"measurement": "% ID pancreas", "setting": "[2]; 2 min post injection", "result": "1.6 ± 0.8", "unit": "% ID"}, {"measurement": "SUV pancreas", "setting": "[2]; 2 min post injection", "result": "2.2 ± 1.0"}, {"measurement": "% ID pancreas", "setting": "[2]; 60 min post injection", "result": "0.2 ± 0.1", "unit": "% ID"}, {"measurement": "SUV pancreas", "setting": "[2]; 60 min post injection", "result": "0.3 ± 0.0"}, {"measurement": "% ID spleen", "setting": "[2]; 2 min post injection", "result": "0.5 ± 0.2", "unit": "% ID"}, {"measurement": "SUV spleen", "setting": "[2]; 2 min post injection", "result": "2.0 ± 0.2"}, {"measurement": "% ID spleen", "setting": "[2]; 60 min post injection", "result": "0.03 ± 0.01", "unit": "% ID"}, {"measurement": "SUV spleen", "setting": "[2]; 60 min post injection", "result": "0.2 ± 0.0"}, {"measurement": "% ID stomach", "setting": "[2]; 2 min post injection", "result": "1.3 ± 0.3", "unit": "% ID"}, {"measurement": "% ID stomach", "setting": "[2]; 60 min post injection", "result": "4.2 ± 3.9", "unit": "% ID"}, {"measurement": "brain % ID 2 min/60 min ratio", "setting": "[2]; wash-out from brain", "result": 18.4}]}, {"smiles": "Cc1sc(=NC(=O)C2C(C)(C)C2(C)C)n(CCO[11CH3])c1C", "note": "[[^11C]A-836339]", "values": [{"measurement": "SUV in brain", "setting": "[3]", "result": "~ 0.5"}]}]}
